Test results taken from patent publication US8895568B2, “Compositions comprising substituted pteridines as agrochemicals” (Dow AgroSciences LLC, priority 2009, dated 2014).
Read-outs that look alike come from different tables or passages of the source.

Experiments:
Assay type in all cases: in vivo
[1] = tested on: DROSME, AEDSAE, LAPHEG, or HELIVI; test: Insecticidal activity, active if any of DROSME, AEDSAE, LAPHEG or HELIVI was controlled at 80% or more; conditions: read-out: >80% mortality on any insect species @ 4000 ppm
[2] = tested on: Pseudoperonospora cubensis; test: Cucumber Downy Mildew (PSPECU), foliar spray, percent disease control; conditions: read-out: PSPECU percent control
Colletotricum lagenarium = test: Cucumber Anthracnose (COLLLA), foliar spray, percent disease control
Cochliobolus sativus = test: Spot Blotch of Wheat (COCHSA), foliar spray, percent disease control
[3] = Bipolaris sorokiniana, foliar; read-out: COCHSA percent control
[4] = Bipolaris sorokiniana; foliar spray; read-out: COCHSA percent control

c1cnc(Oc2ccc(CCNc3ncnc4nccnc34)cc2)cn1 [Compound 28]
pest or weed control at 4000 ppm [1]: > 80%
pest or weed control at 200 µg/mL ([2]; foliar): 80 to 100%
pest or weed control at 200 µg/mL (Colletotricum lagenarium; foliar): 0 to 49%
pest or weed control at 200 µg/mL (Cochliobolus sativus; [3]): 0 to 49%

Cc1cnc2ncnc(NCCc3ccc(Oc4ccc(C#N)cn4)cc3)c2n1 [Compound 52]
pest or weed control at 4000 ppm [1]: > 80%
pest or weed control at 200 µg/mL ([2]; foliar): 80 to 100%
pest or weed control at 200 µg/mL (Colletotricum lagenarium; foliar): 0 to 49%
pest or weed control at 200 µg/mL (Cochliobolus sativus; [3]): 0 to 49%

Cc1ccc(Oc2ccc(CCNc3ncnc4nccnc34)cc2)nc1 [Compound 40]
pest or weed control at 4000 ppm [1]: > 80%
pest or weed control at 200 µg/mL ([2]; foliar): 80 to 100%
pest or weed control at 200 µg/mL (Colletotricum lagenarium; foliar): 50 to 79%
pest or weed control at 200 µg/mL (Cochliobolus sativus; [3]): 0 to 49%

FC(F)(F)COc1cccc(Oc2ccc(CCNc3ncnc4nccnc34)cc2)n1 [Compound 11, Pteridin-4-yl-(2-{4-[6-(2,2,2-trifluoroethoxy)-pyridin-2-yloxy]-phenyl}-ethyl)-amine]
pest or weed control at 4000 ppm [1]: > 80%
pest or weed control at 200 µg/mL ([2]; foliar): 50 to 79%
pest or weed control at 200 µg/mL (Colletotricum lagenarium; foliar): 0 to 49%
pest or weed control at 200 µg/mL (Cochliobolus sativus; [3]): 0 to 49%

CCCOc1cc(CCNc2ncnc3nccnc23)ccc1Oc1cc(C(C)(F)F)ccn1 [Compound 199]
pest or weed control at 4000 ppm [1]: > 80%
pest or weed control at 200 µg/mL ([2]; foliar): 80 to 100%
pest or weed control at 200 µg/mL (Colletotricum lagenarium; foliar): 0 to 49%
pest or weed control at 200 µg/mL (Cochliobolus sativus; [3]): 0 to 49%

FC(F)(F)c1ccc(Oc2ccc(CCNc3ncnc4nccnc34)cc2)nc1 [Compound 5]
pest or weed control at 4000 ppm [1]: > 80%
pest or weed control at 200 µg/mL ([2]; foliar): 80 to 100%
pest or weed control at 200 µg/mL (Colletotricum lagenarium; foliar): 80 to 100%
pest or weed control at 200 µg/mL (Cochliobolus sativus; [3]): 0 to 49%

N#Cc1ccnc(Oc2ccc(CCNc3ncnc4nccnc34)cc2)c1 [Compound 8]
pest or weed control at 4000 ppm [1]: > 80%
pest or weed control at 200 µg/mL ([2]; foliar): 80 to 100%
pest or weed control at 200 µg/mL (Colletotricum lagenarium; foliar): 80 to 100%
pest or weed control at 200 µg/mL (Cochliobolus sativus; [3]): 0 to 49%

c1csc(Oc2ccc(CCNc3ncnc4nccnc34)cc2)n1 [Compound 48]
pest or weed control at 4000 ppm [1]: > 80%
pest or weed control at 200 µg/mL ([2]; foliar): 80 to 100%
pest or weed control at 200 µg/mL (Colletotricum lagenarium; foliar): 0 to 49%
pest or weed control at 200 µg/mL (Cochliobolus sativus; [3]): 0 to 49%

CCCOc1cc(CCNc2ncnc3nccnc23)ccc1Oc1cc(C(F)(F)F)ccn1 [Compound 188]
pest or weed control at 4000 ppm [1]: > 80%
pest or weed control at 200 µg/mL ([2]; foliar): 80 to 100%
pest or weed control at 200 µg/mL (Colletotricum lagenarium; foliar): 80 to 100%
pest or weed control at 200 µg/mL (Cochliobolus sativus; [3]): 0 to 49%

FC(F)(F)COc1ccnc(Oc2ccc(CCNc3ncnc4nccnc34)cc2)n1 [Compound 25]
pest or weed control at 4000 ppm [1]: > 80%
pest or weed control at 200 µg/mL ([2]; foliar): 80 to 100%
pest or weed control at 200 µg/mL (Colletotricum lagenarium; foliar): 0 to 49%
pest or weed control at 200 µg/mL (Cochliobolus sativus; [3]): 0 to 49%

Ic1ccnc(Oc2ccc(CCNc3ncnc4nccnc34)cc2)c1 [Compound 36, N-(2-{4-[(4-iodopyridin-2-yl)oxy]phenyl}ethyl)pteridin-4-amine]
pest or weed control at 4000 ppm [1]: > 80%
pest or weed control at 200 µg/mL ([2]; foliar): 80 to 100%
pest or weed control at 200 µg/mL (Colletotricum lagenarium; foliar): 50 to 79%
pest or weed control at 200 µg/mL (Cochliobolus sativus; [3]): 50 to 79%

Cc1cnc2ncnc(NCCc3ccc(Oc4cncc(Cl)c4C#N)cc3)c2n1 [Compound 120]
pest or weed control at 4000 ppm [1]: > 80%
pest or weed control at 200 µg/mL ([2]; foliar): 0 to 49%
pest or weed control at 200 µg/mL (Colletotricum lagenarium; foliar): 0 to 49%
pest or weed control at 200 µg/mL (Cochliobolus sativus; [3]): 0 to 49%

FC(F)(F)c1cccc(Oc2ccc(CCNc3ncnc4nccnc34)cc2)n1 [Compound 6]
pest or weed control at 4000 ppm [1]: > 80%
pest or weed control at 200 µg/mL ([2]; foliar): 80 to 100%
pest or weed control at 200 µg/mL (Colletotricum lagenarium; foliar): 0 to 49%
pest or weed control at 200 µg/mL (Cochliobolus sativus; [3]): 0 to 49%

CCOC(=O)c1ccc(Oc2ccc(CCNc3ncnc4nccnc34)cc2)nc1 [Compound 137]
pest or weed control at 4000 ppm [1]: > 80%
pest or weed control at 200 µg/mL ([2]; foliar): 0 to 49%
pest or weed control at 200 µg/mL (Colletotricum lagenarium; foliar): 0 to 49%
pest or weed control at 200 µg/mL (Cochliobolus sativus; [3]): 0 to 49%

Fc1cc(C(F)(F)F)ccc1Oc1ccc(CCNc2ncnc3nccnc23)cc1 [Compound 113]
pest or weed control at 4000 ppm [1]: > 80%
pest or weed control at 200 µg/mL ([2]; foliar): 80 to 100%
pest or weed control at 200 µg/mL (Colletotricum lagenarium; foliar): 0 to 49%
pest or weed control at 200 µg/mL (Cochliobolus sativus; [3]): 0 to 49%

FC(F)(F)c1cccc(-c2ccc(CCNc3ncnc4nccnc34)cc2)c1 [Compound 122]
pest or weed control at 4000 ppm [1]: > 80%
pest or weed control at 200 µg/mL ([2]; foliar): 50 to 79%
pest or weed control at 200 µg/mL (Colletotricum lagenarium; foliar): 0 to 49%
pest or weed control at 200 µg/mL (Cochliobolus sativus; Bipolaris sorokiniana, foliar, read-out: COCHSA percent control): 0 to 49%

Cc1cccc(Oc2ccc(CCNc3ncnc4nccnc34)cc2)n1 [Compound 39]
pest or weed control at 4000 ppm [1]: > 80%
pest or weed control at 200 µg/mL ([2]; foliar): 80 to 100%
pest or weed control at 200 µg/mL (Colletotricum lagenarium; foliar): 0 to 49%
pest or weed control at 200 µg/mL (Cochliobolus sativus; [3]): 0 to 49%

FC(F)(F)c1ccnc(Oc2ccc(CCNc3ncnc4nccnc34)cc2Br)c1 [Compound 212, {2-[3-bromo-4-(4-trifluoromethylpyridin-2-yloxy)-phenyl]-ethyl}-pteridin-4-yl-amine]
pest or weed control at 4000 ppm [1]: > 80%
pest or weed control at 200 µg/mL ([2]; foliar spray): 80 to 100%
pest or weed control at 200 µg/mL (Colletotricum lagenarium; foliar spray): 80 to 100%
pest or weed control at 200 µg/mL (Cochliobolus sativus; [4]): 50 to 79%

Cc1nc2ncnc(NCCc3ccc(Oc4ncc(C(F)(F)F)cc4F)cc3)c2nc1C [Compound 163]
pest or weed control at 4000 ppm [1]: > 80%
pest or weed control at 200 µg/mL ([2]; foliar): 80 to 100%
pest or weed control at 200 µg/mL (Colletotricum lagenarium; foliar): 80 to 100%
pest or weed control at 200 µg/mL (Cochliobolus sativus; [3]): 0 to 49%

CCc1ncnc(Oc2ccc(CCNc3ncnc4nccnc34)cc2)c1Cl [Compound 146]
pest or weed control at 4000 ppm [1]: > 80%
pest or weed control at 200 µg/mL ([2]; foliar): 80 to 100%
pest or weed control at 200 µg/mL (Colletotricum lagenarium; foliar): 50 to 79%
pest or weed control at 200 µg/mL (Cochliobolus sativus; [3]): 0 to 49%

Cc1cc(CCNc2ncnc3nccnc23)ccc1Oc1cc(C(C)(F)F)ccn1 [Compound 169]
pest or weed control at 4000 ppm [1]: > 80%
pest or weed control at 200 µg/mL ([2]; foliar): 80 to 100%
pest or weed control at 200 µg/mL (Colletotricum lagenarium; foliar): 50 to 79%
pest or weed control at 200 µg/mL (Cochliobolus sativus; [3]): 0 to 49%

Brc1ccc(Oc2ccc(CCNc3ncnc4nccnc34)cc2)cn1 [Compound 110]
pest or weed control at 4000 ppm [1]: > 80%
pest or weed control at 200 µg/mL ([2]; foliar): 80 to 100%
pest or weed control at 200 µg/mL (Colletotricum lagenarium; foliar): 0 to 49%
pest or weed control at 200 µg/mL (Cochliobolus sativus; [3]): 0 to 49%

Fc1cccc(Oc2ccc(CCNc3ncnc4nccnc34)cc2)c1C(F)(F)F [Compound 216]
pest or weed control at 4000 ppm [1]: > 80%
pest or weed control at 200 µg/mL ([2]; foliar spray): 80 to 100%
pest or weed control at 200 µg/mL (Colletotricum lagenarium; foliar spray): 0 to 49%
pest or weed control at 200 µg/mL (Cochliobolus sativus; [4]): 0 to 49%

Cc1nc(NCCc2ccc(Oc3ncc(C(F)(F)F)cc3F)cc2)c2nc(C)c(C)nc2n1 [Compound 214]
pest or weed control at 4000 ppm [1]: > 80%
pest or weed control at 200 µg/mL ([2]; foliar spray): 0 to 49%
pest or weed control at 200 µg/mL (Colletotricum lagenarium; foliar spray): 0 to 49%
pest or weed control at 200 µg/mL (Cochliobolus sativus; [4]): 0 to 49%

Cc1cc(CCNc2ncnc3nccnc23)ccc1Oc1ncc(C(F)(F)F)cc1F [Compound 143]
pest or weed control at 4000 ppm [1]: > 80%
pest or weed control at 200 µg/mL ([2]; foliar): 80 to 100%
pest or weed control at 200 µg/mL (Colletotricum lagenarium; foliar): 0 to 49%
pest or weed control at 200 µg/mL (Cochliobolus sativus; [3]): 0 to 49%

FC(F)(F)c1ccc(Oc2ccc(CCNc3ncnc4nccnc34)cc2)nn1 [Compound 34]
pest or weed control at 4000 ppm [1]: > 80%
pest or weed control at 200 µg/mL ([2]; foliar): 80 to 100%
pest or weed control at 200 µg/mL (Colletotricum lagenarium; foliar): 0 to 49%
pest or weed control at 200 µg/mL (Cochliobolus sativus; [3]): 0 to 49%

N#Cc1ccc(Oc2ccc(CCNc3ncnc4nccnc34)cc2)nc1 [Compound 14]
pest or weed control at 4000 ppm [1]: > 80%
pest or weed control at 200 µg/mL ([2]; foliar): 80 to 100%
pest or weed control at 200 µg/mL (Colletotricum lagenarium; foliar): 0 to 49%
pest or weed control at 200 µg/mL (Cochliobolus sativus; [3]): 0 to 49%

Cc1cccnc1Oc1ccc(CCNc2ncnc3nccnc23)cc1 [Compound 43]
pest or weed control at 4000 ppm [1]: > 80%
pest or weed control at 200 µg/mL ([2]; foliar): 80 to 100%
pest or weed control at 200 µg/mL (Colletotricum lagenarium; foliar): 0 to 49%
pest or weed control at 200 µg/mL (Cochliobolus sativus; [3]): 0 to 49%

FC(F)c1ccnc(Oc2ccc(CCNc3ncnc4nccnc34)cc2)c1 [Compound 101]
pest or weed control at 4000 ppm [1]: > 80%
pest or weed control at 200 µg/mL ([2]; foliar): 80 to 100%
pest or weed control at 200 µg/mL (Colletotricum lagenarium; foliar): 80 to 100%
pest or weed control at 200 µg/mL (Cochliobolus sativus; [3]): 0 to 49%

Fc1cc(C(F)(F)F)cnc1Oc1ccc(CCNc2ncnc3nccnc23)cc1 [Compound 54]
pest or weed control at 4000 ppm [1]: > 80%
pest or weed control at 200 µg/mL ([2]; foliar): 80 to 100%
pest or weed control at 200 µg/mL (Colletotricum lagenarium; foliar): 80 to 100%
pest or weed control at 200 µg/mL (Cochliobolus sativus; [3]): 0 to 49%
